We go through nine molecules from patent publication US20060166996A1, “Phthalazine derivatives as phosphodiesterase 4 inhibitors” (Zambon Group S.P.A., priority 2002, published 2006).

A short description of series [1]: Solubility test by HPLC in PBS pH 7.4. In kind it is physicochemical. The settings on record: for solubility kinetic: PBS (phosphate buffer saline), aqueous buffer, kinetic from dmso stock. As for the experimental part: HPLC method used to test the solubility.
Solubility test was performed by HPLC analysis (column 4.6×15 mm) water/0.1% TFA —CH3CN/0.06% TFA gradient) against standard.
A […] solution of the substance dissolved in DMSO was prepared.
In order to prepare the sample 190 μl of PBS (Phosphate Buffer Saline, pH 7.4) were added to 10 μl of the above solution; instead (while) in order to prepare the standard 190 μl of DMSO to other 10 μl of solution were added.

The next series concerns T1, PDE 4 enzyme.
T1 construct: % at 10^−7; other: at 10^−7; PDE 4 from U937 cell line; other: PDE 4 isolated from U937 cell line; SPA with 3H-cAMP
The series is described as follows: PDE 4 enzyme inhibition (SPA). In kind it is biochemical. The settings on record: for % at 10^−7: PDE 4 from U937 cell line. As for the experimental part:
a) PDE 4 Enzyme Purification
PDE 4 enzyme was isolated from U937 cell line according to the method of Nielson et al. (J. Allergy Clin. Immunol. 1990, vol. 86, pages 801-807) partially modified for the FPLC technique (Fast Protein Liquid Chromatography).
U-937cell line (Istituto Zooprofilattico Sperimentale, Brescia, Italy) was maintained in RPMI 1640, with 10% foetal calf serum and 2 mM glutamine, at a cell density between 1×10^6 and 8×10^6 cells per ml in an incubator at 37° C. with 5% CO2.
U937 suspension was homogenised in a buffer containing 10 mM TRIS (tri-(hydroxymethyl)-aminomethane), 5 mM MgCl2, 4 mM EGTA (ethyleneglycol-bis-(β-aminoethylether)-N,N,N′N′-tetra-acetic acid), 5 mM […]-mercaptoethanol, 1 μM leupeptin, 1 μM pepstatin, 1% TRITON x-100, and 100 μM phenylmethyl sulfonyl fluoride (PMSF) at pH 7.8.
The homogenate was centrifuged and the supernatant was used for the purification of the PDE 4 enzyme; it was seeded on a column connected to a biologic chromatography system (FPLC, BIO RAD).
PDE 4 enzyme was eluted with a linear gradient, from 0.05 M to 1 M of sodium acetate, and elution fractions were collected for PDE4 activity assay.
The fractions containing PDE4 activity were collected and, after an overnight dialysis against water to remove sodium acetate, were concentrated to 30% volume with an Amicon filtration system (using YM10 membrane filter).
Ethylene glycol (30% v/v) was added and the sample was stored at −20° C. in a single aliquot until the use.
PDE 4 activity assay was performed using Scintillation Proximity Assay (SPA) Amershan kit consisting of tracer ^3H-cAMP, PDE assay buffer (10×solution: 500 mM TRIS/HCl pH 7.5, 83 mM MgCl2 and 17 mM EGTA) and Yttrium SPA PDE beads (containing 18 mM zinc sulphate).
The radioactivity of the beads was measured using a scintillation counter (Packard model MINAXI β TRI-CARB 4000 SERIES).
The IC50 values were calculated from concentration-inhibition curves by non linear regression analysis using the program ORIGIN 3.5 (MICROCAL SOFTWARE INC.) and each fitting was the mean±SEM of 3 experiments using different PDE 4 preparations.

The mark [2] stands for this setting: PBS pH 7.4, HPLC, compounds of WO 00/05218.
Where [3] appears, read: PBS pH 7.4, HPLC against standard, compounds of formula I.

In brackets after ≈: the same amount, converted by molar mass.

Turning to “3-[4-(3,5-dichloro-pyridin-4-ylmethyl)-7-methoxy-phthalazin-1-yl]-5-methanesulfonylamino-benzoic Acid [Compound 6]”, in series [1] (setting [2]), the “Sol.” value is under 1 µM.
On to “5-[4-(3,5-dichloro-pyridin-4-ylmethyl)-7-methoxy-phthalazin-1-yl]-2-methoxy-benzoic Acid [Compound 4]”, for which the “Sol.” value in series [1] (setting [2]) turned out to be 37 µM.
For orientation: kinetic solubility means the concentration staying in solution when a stock, usually in DMSO, is diluted into the medium. In the case of `COc1ccc2c(Cc3c(Cl)cncc3Cl)nnc(-c3ccc(C(=O)O)cc3)c2c1` [Compound 1, 4-[4-(3,5-dichloro-pyridin-4-ylmethyl)-7-methoxy-phthalazin-1-yl]-benzoic Acid], in series [1] (setting [3]), the solubility (kinetic) was found to be 218 µg/mL (≈ 495 µM) and the “Sol.” value stood at 495.45 µM. In addition, the “% at 10^−7” value with PDE 4 enzyme is given as 25% at 10^−7.
Taken in the same sequence, the figures for `COc1ccc2c(Cc3c(Cl)cncc3Cl)nnc(-c3cc(C(=O)O)cc([N+](=O)[O-])c3)c2c1` [Compound 3, 3-[4-(3,5-dichloro-pyridin-4-ylmethyl)-7-methoxy-phthalazin-1-yl]-5-nitro-benzoic Acid] were 298 µg/mL (≈ 614 µM), 614.43 µM and 47% at 10^−7.
Take `COc1ccc2c(Cc3c(Cl)cncc3Cl)nnc(-c3ccc(OC)c(C(=O)O)c3)c2c1` [Compound 4, 5-[4-(3,5-dichloro-pyridin-4-ylmethyl)-7-methoxy-phthalazin-1-yl]-2-methoxy-benzoic Acid]: in series [1] (setting [3]), the kinetic solubility worked out at 226 µg/mL (≈ 481 µM) and the “Sol.” value is 480.85 µM.
As a reminder, the IC50 is the concentration that gives 50% inhibition. As for `COc1ccc2c(Cc3c(Cl)cncc3Cl)nnc(-c3cc(C(=O)O)ccc3OC)c2c1` [Compound 5, 3-[4-(3,5-dichloro-pyridin-4-ylmethyl)-7-methoxy-phthalazin-1-yl]-4-methoxy-benzoic Acid], in series [1] (setting [3]), the solubility (kinetic) turned out to be 230 µg/mL (≈ 489 µM) and the “Sol.” value worked out at 489.36 µM. Besides, half-maximal inhibition against PDE 4 enzyme (PDE 4 isolated from U937 cell line, SPA with 3H-cAMP) (IC50) required 91.3 nM.
`COc1ccc2c(Cc3c(Cl)cncc3Cl)nnc(-c3cc(NS(C)(=O)=O)cc(C(=O)O)c3)c2c1` [Compound 6, 3-[4-(3,5-dichloro-pyridin-4-ylmethyl)-7-methoxy-phthalazin-1-yl]-5-methanesulfonylamino-benzoic Acid]: in series [1] (setting [3]), the kinetic solubility came to 271 µg/mL (≈ 508 µM) and the “Sol.” value was 508.44 µM.
Taken in the same sequence, the figures for `COc1cc(C(=O)O)cc(-c2nnc(Cc3c(Cl)cncc3Cl)c3ccc(OC)cc23)c1` [Compound 7, 3-[4-(3,5-dichloro-pyridin-4-ylmethyl)-7-methoxy-phthalazin-1-yl]-5-methoxy-benzoic Acid] were 235 µg/mL (≈ 500 µM) and 500.00 µM.
Consider `COc1ccc2c(Cc3c(Cl)cncc3Cl)nnc(-c3nc(C(=O)O)co3)c2c1` [Compound 9, 2-[4-(3,5-dichloro-pyridin-4-ylmethyl)-7-methoxy-phthalazin-1-yl]-oxazole-4-carboxylic Acid], for which, in series [1] (setting [3]), the solubility (kinetic) is 202 µg/mL (≈ 468 µM) and the “Sol.” value was 468.68 µM. In the series with PDE 4 enzyme, the “% at 10^−7” value is 14% at 10^−7.
